# Literature values in PMC8624105 (Viruses, 2021).
# Test system: NHERF1 PDZ domains
# Conditions: PDZ/PBM interaction
substance,measurement,value
ACE2: glycosylated integral membrane protein of 805 residues,interaction,shown to interact with NHERF1 PDZ domains
